Assay results as given in US20260262643A1, “HERBICIDAL BENZOXAZINES” (FMC CORPORATION, priority 2022, published 2026).

Legend:
barnyardgrass [1] = test: Test C preemergence; assay type: in vivo, Echinochloa crusgalli; conditions: preemergence, 0 to 100 scale (0 no effect, 100 complete control)
Summary of the method: (§1)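 Pre: seeds in loam/sand, directed soil spray. Post: 1–2 leaf plants, 2–10 cm. Cmpd in non-phytotoxic solvent + surfactant. Greenhouse 10 d; visual rating vs untreated, 0 = none, 100 = complete control.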

blackgrass [2] = test: Test C preemergence; assay type: in vivo, Alopecurus myosuroides; conditions: preemergence, 0 to 100 scale (0 no effect, 100 complete control)
Summary of the method: as §1

corn [3] = test: Test C preemergence; assay type: in vivo, Zea mays; conditions: preemergence, 0 to 100 scale (0 no effect, 100 complete control)
Summary of the method: as §1

green foxtail [4] = test: Test C preemergence; assay type: in vivo, Setaria viridis; conditions: preemergence, 0 to 100 scale (0 no effect, 100 complete control)
Summary of the method: as §1

kochia [5] = test: Test C preemergence; assay type: in vivo, Bassia scoparia; conditions: preemergence, 0 to 100 scale (0 no effect, 100 complete control)
Summary of the method: as §1

oat, wild [6] = test: Test C preemergence; assay type: in vivo, Avena fatua; conditions: preemergence, 0 to 100 scale (0 no effect, 100 complete control)
Summary of the method: as §1

pigweed, palmer [7] = test: Test C preemergence; assay type: in vivo, Amaranthus palmeri; conditions: preemergence, 0 to 100 scale (0 no effect, 100 complete control)
Summary of the method: as §1

ragweed [8] = test: Test C preemergence; assay type: in vivo, Ambrosia artemisiifolia; conditions: preemergence, 0 to 100 scale (0 no effect, 100 complete control)
Summary of the method: as §1

ryegrass, Italian [9] = test: Test C preemergence; assay type: in vivo, Lolium multiflorum; conditions: preemergence, 0 to 100 scale (0 no effect, 100 complete control)
Summary of the method: as §1

soybean [10] = test: Test C preemergence; assay type: in vivo, Glycine max; conditions: preemergence, 0 to 100 scale (0 no effect, 100 complete control)
Summary of the method: as §1

wheat [11] = test: Test C preemergence; assay type: in vivo, Triticum aestivum; conditions: preemergence, 0 to 100 scale (0 no effect, 100 complete control)
Summary of the method: as §1

barnyardgrass [12] = test: Test C postemergence; assay type: in vivo, Echinochloa crusgalli; conditions: 10 days, 0 to 100 scale (0 no effect, 100 complete control)
Summary of the method: as §1

blackgrass [13] = test: Test C postemergence; assay type: in vivo, Alopecurus myosuroides; conditions: 10 days, 0 to 100 scale (0 no effect, 100 complete control)
Summary of the method: as §1

corn [14] = test: Test C postemergence; assay type: in vivo, Zea mays; conditions: 10 days, 0 to 100 scale (0 no effect, 100 complete control)
Summary of the method: as §1

green foxtail [15] = test: Test C postemergence; assay type: in vivo, Setaria viridis; conditions: 10 days, 0 to 100 scale (0 no effect, 100 complete control)
Summary of the method: as §1

kochia [16] = test: Test C postemergence; assay type: in vivo, Bassia scoparia; conditions: 10 days, 0 to 100 scale (0 no effect, 100 complete control)
Summary of the method: as §1

oat, wild [17] = test: Test C postemergence; assay type: in vivo, Avena fatua; conditions: 10 days, 0 to 100 scale (0 no effect, 100 complete control)
Summary of the method: as §1

pigweed, palmer [18] = test: Test C postemergence; assay type: in vivo, Amaranthus palmeri; conditions: 10 days, 0 to 100 scale (0 no effect, 100 complete control)
Summary of the method: as §1

ragweed [19] = test: Test C postemergence; assay type: in vivo, Ambrosia artemisiifolia; conditions: 10 days, 0 to 100 scale (0 no effect, 100 complete control)
Summary of the method: as §1

ryegrass, Italian [20] = test: Test C postemergence; assay type: in vivo, Lolium multiflorum; conditions: 10 days, 0 to 100 scale (0 no effect, 100 complete control)
Summary of the method: as §1

soybean [21] = test: Test C postemergence; assay type: in vivo, Glycine max; conditions: 10 days, 0 to 100 scale (0 no effect, 100 complete control)
Summary of the method: as §1

wheat [22] = test: Test C postemergence; assay type: in vivo, Triticum aestivum; conditions: 10 days, 0 to 100 scale (0 no effect, 100 complete control)
Summary of the method: as §1

galium = test: Test C postemergence; assay type: in vivo, Galium aparine; conditions: 10 days, 0 to 100 scale (0 no effect, 100 complete control)
Summary of the method: as §1

horseweed = test: Test C postemergence; assay type: in vivo, Erigeron canadensis; conditions: 10 days, 0 to 100 scale (0 no effect, 100 complete control)
Summary of the method: as §1

barnyardgrass [23] = test: Test D flooded paddy test; assay type: in vivo, Echinochloa crus-galli; conditions: 250 g ai/ha, applied to paddy water, visual rating after 13 to 14 days, scale 0 to 100 (0 no effect, 100 complete control)
Summary of the method: (§2)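 Post-flood water application at the 2-leaf stage; 3 cm flood depth kept constant; visual control rating 0–100 after 13–14 days greenhouse growth.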

ducksalad = test: Test D flooded paddy test; assay type: in vivo, Heteranthera limosa; conditions: 250 g ai/ha, applied to paddy water, visual rating after 13 to 14 days, scale 0 to 100 (0 no effect, 100 complete control)
Summary of the method: as §2

rice = test: Test D flooded paddy test; assay type: in vivo, Oryza sativa; conditions: 250 g ai/ha, applied to paddy water, visual rating after 13 to 14 days, scale 0 to 100 (0 no effect, 100 complete control)
Summary of the method: as §2

sedge, umbrella = test: Test D flooded paddy test; assay type: in vivo, Cyperus difformis; conditions: 250 g ai/ha, applied to paddy water, visual rating after 13 to 14 days, scale 0 to 100 (0 no effect, 100 complete control)
Summary of the method: as §2

COC[C@H]1CN(C(=O)c2cc(-n3cnc(C(C)C)n3)ccc2C)c2cccc(Cl)c2O1 [Compound 313]
Barnyardgrass plant response rating (barnyardgrass [1]; 500 g ai/ha): 100 | Barnyardgrass plant response rating (barnyardgrass [1]; Test C, 125 g ai/ha): 80 | Blackgrass plant response rating (blackgrass [2]; 500 g ai/ha): 60 | Blackgrass plant response rating (blackgrass [2]; Test C, 125 g ai/ha): 50 | Corn plant response rating (corn [3]; 500 g ai/ha): 0 | Corn plant response rating (corn [3]; Test C, 125 g ai/ha): 0 | Foxtail, Green plant response rating (green foxtail [4]; 500 g ai/ha): 100 | Foxtail, Green plant response rating (green foxtail [4]; Test C, 125 g ai/ha): 100 | Kochia plant response rating (kochia [5]; 500 g ai/ha): 100 | Kochia plant response rating (kochia [5]; Test C, 125 g ai/ha): 80 | Oat, Wild plant response rating (oat, wild [6]; 500 g ai/ha): 90 | Oat, Wild plant response rating (oat, wild [6]; Test C, 125 g ai/ha): 90 | Pigweed, Palmer plant response rating (pigweed, palmer [7]; 500 g ai/ha): 100 | Pigweed, Palmer plant response rating (pigweed, palmer [7]; Test C, 125 g ai/ha): 100 | Ragweed plant response rating (ragweed [8]; 500 g ai/ha): 70 | Ragweed plant response rating (ragweed [8]; Test C, 125 g ai/ha): 0 | Ryegrass, Italian plant response rating (ryegrass, Italian [9]; 500 g ai/ha): 100 | Ryegrass, Italian plant response rating (ryegrass, Italian [9]; Test C, 125 g ai/ha): 80 | Soybean plant response rating (soybean [10]; 500 g ai/ha): 100 | Soybean plant response rating (soybean [10]; Test C, 125 g ai/ha): 40 | Wheat plant response rating (wheat [11]; 500 g ai/ha): 90 | Wheat plant response rating (wheat [11]; Test C, 125 g ai/ha): 20 | Plant response rating, Barnyardgrass (barnyardgrass [12]; 500 g ai/ha, postemergence): 70 | Plant response rating, Barnyardgrass (barnyardgrass [12]; Postemergence, 125 g ai/ha): 40 | Plant response rating, Blackgrass (blackgrass [13]; 500 g ai/ha, postemergence): 100 | Plant response rating, Blackgrass (blackgrass [13]; Postemergence, 125 g ai/ha): 70 | Plant response rating, Corn (corn [14]; 500 g ai/ha, postemergence): 90 | Plant response rating, Corn (corn [14]; Postemergence, 125 g ai/ha): 80 | Plant response rating, Foxtail, Green (green foxtail [15]; 500 g ai/ha, postemergence): 90 | Plant response rating, Foxtail, Green (green foxtail [15]; Postemergence, 125 g ai/ha): 40 | Plant response rating, Kochia (kochia [16]; 500 g ai/ha, postemergence): 90 | Plant response rating, Kochia (kochia [16]; Postemergence, 125 g ai/ha): 90 | Plant response rating, Oat, Wild (oat, wild [17]; 500 g ai/ha, postemergence): 60 | Plant response rating, Oat, Wild (oat, wild [17]; Postemergence, 125 g ai/ha): 20 | Plant response rating, Pigweed, Palmer (pigweed, palmer [18]; 500 g ai/ha, postemergence): 100 | Plant response rating, Pigweed, Palmer (pigweed, palmer [18]; Postemergence, 125 g ai/ha): 80 | Plant response rating, Ragweed (ragweed [19]; 500 g ai/ha, postemergence): 90 | Plant response rating, Ragweed (ragweed [19]; Postemergence, 125 g ai/ha): 60 | Plant response rating, Ryegrass, Italian (ryegrass, Italian [20]; 500 g ai/ha, postemergence): 90 | Plant response rating, Ryegrass, Italian (ryegrass, Italian [20]; Postemergence, 125 g ai/ha): 80 | Plant response rating, Soybean (soybean [21]; 500 g ai/ha, postemergence): 100 | Plant response rating, Soybean (soybean [21]; Postemergence, 125 g ai/ha): 100 | Plant response rating, Wheat (wheat [22]; 500 g ai/ha, postemergence): 50 | Plant response rating, Wheat (wheat [22]; Postemergence, 125 g ai/ha): 30 | Plant response rating, Galium (galium; 500 g ai/ha, postemergence): 100 | Plant response rating, Galium (galium; Postemergence, 125 g ai/ha): 100 | Plant response rating, Horseweed (horseweed; 500 g ai/ha, postemergence): 90 | Plant response rating, Horseweed (horseweed; Postemergence, 125 g ai/ha): 90 | Plant response rating, Barnyardgrass (Flood) (barnyardgrass [23]): 35 | Plant response rating, Ducksalad (Flood) (ducksalad): 65 | Plant response rating, Rice (Flood) (rice): 20 | Plant response rating, Sedge, Umbrella (Flood) (sedge, umbrella): 98
